According to patent US20240217966A1, “PHARMACEUTICAL COMPOSITION CONTAINING GLP-1 RECEPTOR AGONIST HAVING FUSED RING” (Shionogi & Co., Ltd., priority 2021, published 2024):
Like-named read-outs stand apart in the source and are kept apart here.

Target: T1, Human GLP-1 receptor (Homo sapiens, UniProt P43220)
T1 construct: expressed in transfected cells
Experiment: Measurement of GLP-1 receptor agonist activity (cAMP assay)
Assay type: cell-based
Procedure, shortened: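 hGLP-1R/CHO-K1 cells in HBSS with 0.1% BSA, 20 mM HEPES, 0.1 mM IBMX and 0.2 mM RO20-1724 exposed to compound plus forskolin (400 μM stock) for 1 h at 37 °C. Intracellular cAMP read by HTRF (cAMP-d2/anti-cAMP cryptate, 1 h at room temperature).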

[1] = CHO-K1, maximum effect, cAMP increase in GLP-1 R/CHO-K1 cells, 2 nM human GLP-1 (7-36) = 100%, DMSO only = 0%, read-out: Emax
[2] = cAMP increase in GLP-1 R/CHO-K1 cells, 2 nM human GLP-1 (7-36) = 100%, DMSO only = 0%
[3] = CHO-K1, hGLP-1R/CHO-K1 cells, cAMP, 100% = human GLP-1 (7-36) at 2 nM, 0% = DMSO only, read-out: Emax(%)
[4] = hGLP-1R/CHO-K1 cells, cAMP increase, 37° C. 1 hour

T1 sequence (P43220 24-463): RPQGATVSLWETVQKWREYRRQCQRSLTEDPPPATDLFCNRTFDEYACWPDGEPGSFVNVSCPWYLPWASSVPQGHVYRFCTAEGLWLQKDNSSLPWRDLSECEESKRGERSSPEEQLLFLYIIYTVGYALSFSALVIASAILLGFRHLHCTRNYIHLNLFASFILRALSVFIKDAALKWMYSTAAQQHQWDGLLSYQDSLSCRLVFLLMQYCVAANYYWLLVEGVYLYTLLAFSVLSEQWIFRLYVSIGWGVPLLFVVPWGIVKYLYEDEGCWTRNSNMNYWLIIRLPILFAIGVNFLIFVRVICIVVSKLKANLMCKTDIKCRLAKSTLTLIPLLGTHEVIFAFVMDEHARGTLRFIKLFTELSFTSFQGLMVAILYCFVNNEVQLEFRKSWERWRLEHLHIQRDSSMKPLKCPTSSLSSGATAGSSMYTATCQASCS

Row | Structure (SMILES) | Emax [1] | EC50 [2] | Emax [3] | EC50 [4]
1 | C[C@H]1c2cc(OCc3ccc(Cl)cc3)c(C(F)(F)F)cc2CCN1Cc1nc2ccc(C(=O)O)nc2n1C[C@@H]1CCO1 [Compound I-178] | – | – | 111% | 1.97 nM
2 | O=C(O)c1ccc2nc(Cc3ccc4cc(C(F)(F)F)c(OCc5ccc(Cl)cc5F)nc4c3)n(C[C@@H]3CCO3)c2c1 [Compound I-046] | – | – | 118% | –
3 | C[C@H]1c2cc(OCc3ccc(C#N)cc3F)c(C(F)(F)F)cc2CCN1Cc1nc2ccc(C(=O)O)nc2n1C[C@@H]1CCO1 [Compound I-186] | – | – | 111% | 3.28 nM
4 | O=C(O)c1ccc2nc(CN3CCc4cc(C(F)(F)F)c(OCc5ccc(Cl)cc5)cc4C3)n(C[C@@H]3CCO3)c2c1 [Compound I-080] | – | – | 103% | 3.89 nM
5 | O=C(O)c1ccc2nc(CN3CCc4cc(C(F)(F)F)c(OCc5ccn(C(F)F)n5)cc4C3)n(C[C@@H]3CCO3)c2c1 [Compound I-150] | – | – | 92% | 18.3 nM
6 | O=C(NS(=O)(=O)C1CC1)c1ccc2nc(CN3CCc4cc(C(F)(F)F)c(OCc5ccc(Cl)cc5F)cc4C3)n(C[C@@H]3CCO3)c2c1 [Compound I-055] | – | – | 87.3% | 78.8 nM
7 | O=C(O)c1ccc2nc(CN3CCc4cc(C(F)(F)F)c(OCc5ccc(C(F)(F)F)cc5)cc4C3)n(C[C@@H]3CCO3)c2c1 [Compound I-083] | – | – | 93% | 21.4 nM
8 | Cc1ccc(COc2cc3c(cc2C(F)(F)F)CCN(Cc2nc4ccc(C(=O)O)nc4n2C[C@@H]2CCO2)[C@H]3C)cc1 [Compound I-179] | – | – | 99% | 1.88 nM
9 | Cc1cc2c(cc1OCc1ccc(Cl)cc1F)CN(Cc1nc3ncc(C(=O)O)cc3n1C[C@@H]1CCO1)CC2 [Compound I-028] | – | – | 84% | 78.6 nM
10 | O=C(O)c1ccc2nc(CN3CCc4cc(C(F)(F)F)c(OCc5ccc(Cl)cc5F)cc4C3=O)n(C[C@@H]3CCO3)c2n1 [Compound I-031] | – | – | 91% | 8.92 nM
11 | Cc1cc2c(cc1OCc1ccc(Cl)cc1F)C(=O)N(Cc1nc3ccc(C(=O)O)nc3n1C[C@@H]1CCO1)CC2 [Compound I-011] | – | – | 92.7% | 70.8 nM
12 | C[C@H]1c2cc(OCc3ccc(F)cc3)c(C(F)(F)F)cc2CCN1Cc1nc2c(F)cc(C(=O)O)cc2n1C[C@@H]1CCO1 [Compound I-121] | – | – | 119% | 1.21 nM
13 | N#Cc1ccc(COc2cc3c(cc2C(F)(F)F)CCN(Cc2nc4ccc(C(=O)O)cc4n2C[C@@H]2CCO2)C3)c(F)c1 [Compound I-053] | – | – | 115% | 14.6 nM
14 | O=C(O)c1ccc2nc(CN3CCc4cc(C(F)(F)F)c(OCc5ccc(Cl)cc5F)cc4C3C(F)F)n(C[C@@H]3CCO3)c2c1 (mixture of isomers) [Compound I-066] | – | – | 124% | 8.72 nM
15 | N#CCC1(Cn2c(CN3CCc4cc(C(F)(F)F)c(OCc5ccc(Cl)cc5F)cc4C3)nc3ccc(C(=O)O)cc32)CC1 [Compound I-041] | – | – | 102% | 45.2 nM
16 | C[C@H]1c2cc(OCc3cc(F)c(Cl)cc3F)c(C(F)(F)F)cc2CCN1Cc1nc2ccc(C(=O)O)cc2n1C[C@@H]1CCO1 [Compound I-169] | – | – | 101% | 1.21 nM
17 | O=C(O)c1ccc2nc(CN3CCc4cc(C(F)(F)F)c(OCc5c(F)cccc5F)cc4C3)n(C[C@@H]3CCO3)c2c1 [Compound I-155] | – | – | 93.7% | 25.9 nM
18 | Cc1c(Cc2nc3ccc(C(=O)O)cc3n2C[C@@H]2CCO2)ccc2nc(C(F)(F)F)c(OCc3ccc(Cl)cc3F)nc12 [Compound I-132] | – | – | 105% | 0.881 nM
19 | C[C@H]1c2cc(OCc3cc(F)c(Cl)cc3F)c(C(F)(F)F)cc2CCN1Cc1nc2ccc(C(=O)O)nc2n1C[C@@H]1CCO1 [Compound I-185] | – | – | 106% | 2.2 nM
20 | C[C@H]1c2cc(OCc3c(F)cc(F)cc3F)c(C(F)(F)F)cc2CCN1Cc1nc2ccc(C(=O)O)cc2n1C[C@@H]1CCO1 [Compound I-124] | – | – | 102% | 1.71 nM
21 | O=C(O)c1ccc2nc(CN3CCc4cc(C(F)(F)F)c(OCc5ccc(Cl)cc5F)cc4C3)n(CC3(CF)CC3)c2c1 [Compound I-043] | – | – | 109% | 13.2 nM

Continued, values first:

Row | Emax [1] | EC50 [2] | Emax [3] | EC50 [4] | Structure (SMILES)
22 | 93% | 1.22 nM | – | – | Cc1ccc(COc2cc3c(cc2Cl)CCN(Cc2nc4c(F)cc(C(=O)O)cc4n2C[C@@H]2CCO2)[C@H]3C)cc1 [Compound I-330]
23 | 116% | 0.702 nM | – | – | Cc1ccc(COc2nc3c(cc2C(F)(F)F)CCN(Cc2nc4c(F)cc(C(=O)O)cc4n2C[C@@H]2CCO2)C3)cc1 [Compound I-381]
24 | 115% | 0.171 nM | – | – | C[C@H]1c2nc(OCc3ccc(F)cc3F)c(C(F)(F)F)cc2CCN1Cc1nc2ccc(C(=O)O)nc2n1C[C@@H]1CCO1 [Compound I-288]
25 | – | – | 114% | 1.2 nM | C[C@H]1c2cc(OCc3ccc(C#N)cc3F)c(C(F)(F)F)cc2CCN1Cc1nc2ccc(C(=O)O)c(F)c2n1C[C@@H]1CCO1 [Compound I-219]
26 | 122% | 0.102 nM | – | – | C[C@H]1c2nc(OCc3ccc(Cl)cc3Cl)c(C(F)(F)F)cc2CCN1Cc1nc2ccc(C(=O)O)cc2n1C[C@@H]1CCO1 [Compound I-255]
27 | 84% | 9.85 nM | – | – | C[C@H]1c2cc(OCc3ccc(C4CC4)cc3)c(Cl)cc2CCN1Cc1nc2ccc(C(=O)O)c(F)c2n1C[C@@H]1CCO1 [Compound I-321]
28 | 105% | 1.38 nM | – | – | C[C@H]1c2cc(OCc3ccc(Cl)cc3)c(Cl)cc2CCN1Cc1nc2c(F)cc(C(=O)O)cc2n1C[C@@H]1CCO1 [Compound I-332]
29 | 109% | 1.16 nM | – | – | O=C(O)c1ccc2nc(CN3CCc4cc(C(F)(F)F)c(OCc5ccc(Cl)cc5Cl)nc4C3)n(C[C@@H]3CCO3)c2c1 [Compound I-269]
30 | – | – | 125% | 6.07 nM | C[C@H]1c2cc(OCc3ccc(C#N)cc3F)c(Cl)cc2CCN1Cc1nc2ccc(C(=O)O)cc2n1C[C@@H]1CCO1 [Compound I-221]
31 | 110% | 1.76 nM | – | – | O=C(O)c1ccc2nc(CN3CCc4cc(C(F)(F)F)c(OCc5ccc(Cl)cc5)nc4C3)n(C[C@@H]3CCO3)c2n1 [Compound I-302]
32 | 125% | 0.0798 nM | – | – | COc1cc(Cl)ccc1COc1nc2c(cc1C(F)(F)F)CCN(Cc1nc3ccc(C(=O)O)cc3n1C[C@@H]1CCO1)[C@H]2C [Compound I-252]
33 | 117% | 0.223 nM | – | – | COc1cc(C(=O)O)cc2c1nc(CN1CCc3cc(C(F)(F)F)c(OCc4ccc(Cl)cc4Cl)cc3[C@@H]1C)n2C[C@@H]1CCO1 [Compound I-232]
34 | 114% | 0.0521 nM | – | – | C[C@H]1c2nc(OCc3ccc(Cl)cc3F)c(Cl)cc2CCN1Cc1nc2ccc(C(=O)O)cc2n1C[C@@H]1CCO1 [Compound I-276]
35 | 113% | 0.0964 nM | – | – | COc1cc(Cl)ccc1COc1nc2c(cc1C(F)(F)F)CCN(Cc1nc3ccc(C(=O)O)nc3n1C[C@@H]1CCO1)[C@H]2C [Compound I-350]
36 | 125% | 0.236 nM | – | – | COc1cc(C(=O)O)cc2c1nc(CN1CCc3cc(Cl)c(OCc4ccc(Cl)cc4)cc3[C@@H]1C)n2C[C@@H]1CCO1 [Compound I-341]
37 | 116% | 0.69 nM | – | – | O=C(O)c1ccc2nc(CN3CCc4cc(C(F)(F)F)c(OCc5ccc(OC(F)F)cc5F)nc4C3)n(C[C@@H]3CCO3)c2c1 [Compound I-270]
38 | 100% | 0.696 nM | – | – | C[C@H]1c2cc(OCc3ccc(Cl)cc3F)c(Cl)cc2CCN1Cc1nc2c(F)cc(C(=O)O)cc2n1C[C@@H]1CCO1 [Compound I-336]
39 | – | – | 119% | 1.33 nM | C[C@H]1c2cc(OCc3ccccc3Cl)c(C(F)(F)F)cc2CCN1Cc1nc2ccc(C(=O)O)c(F)c2n1C[C@@H]1CCO1 [Compound I-197]
40 | 111% | 0.0556 nM | – | – | C[C@H]1c2nc(OCc3ccc(Cl)cc3Cl)c(C(F)(F)F)cc2CCN1Cc1nc2ccc(C(=O)O)c(F)c2n1C[C@@H]1CCO1 [Compound I-243]
41 | 115% | 0.42 nM | – | – | O=C(O)c1ccc2nc(CN3CCc4cc(C(F)(F)F)c(OCc5cc(F)c(Cl)cc5F)nc4C3)n(C[C@@H]3CCO3)c2c1F [Compound I-299]
42 | 122% | 0.0194 nM | – | – | COc1cc(C(=O)O)cc2c1nc(CN1CCc3cc(C(F)(F)F)c(OCc4ccc(C)cc4)nc3[C@@H]1C)n2C[C@@H]1CCO1 [Compound I-373]
43 | 133% | 0.0408 nM | – | – | C[C@H]1c2nc(OCc3c(F)cc(Cl)cc3F)c(C(F)(F)F)cc2CCN1Cc1nc2ccc(C(=O)O)c(F)c2n1C[C@@H]1CCO1 [Compound I-362]
44 | 126% | 0.177 nM | – | – | C[C@H]1c2nc(OCc3ccc(F)cc3F)c(C(F)(F)F)cc2CCN1Cc1nc2ccc(C(=O)O)cc2n1C[C@@H]1CCO1 [Compound I-254]
45 | 89% | 3.51 nM | – | – | C[C@H]1c2cc(OCc3ccccc3Cl)c(Cl)cc2CCN1Cc1nc2ccc(C(=O)O)c(F)c2n1C[C@@H]1CCO1 [Compound I-322]
46 | – | – | 106% | 0.136 nM | COc1cc(Cl)ccc1COc1cc2c(cc1C(F)(F)F)CCN(Cc1nc3ccc(C(=O)O)c(F)c3n1C[C@@H]1CCO1)[C@H]2C [Compound I-196]
47 | 113% | 0.122 nM | – | – | C[C@H]1c2nc(OCc3cc(F)c(Cl)cc3F)c(C(F)(F)F)cc2CCN1Cc1nc2ccc(C(=O)O)nc2n1C[C@@H]1CCO1 [Compound I-352]
48 | 97.3% | 1.95 nM | – | – | COc1cc(C(=O)O)cc2c1nc(CN1CCc3cc(Cl)c(OCc4ccc(C5CC5)cc4)cc3[C@@H]1C)n2C[C@@H]1CCO1 [Compound I-342]
49 | – | – | 111% | 0.741 nM | Cc1ccc(COc2cc3c(cc2C(F)(F)F)CCN(Cc2nc4ccc(C(=O)O)c(F)c4n2C[C@@H]2CCO2)[C@H]3C)cc1 [Compound I-194]
